In ChEMBL document CHEMBL4425128, “Functional Characterization of Cholera Toxin Inhibitors Using Human Intestinal Organoids” (J Med Chem, 2016):
Active and inactive are the calls of the source. The calls are words filed in the database; no cut-off is given here.

Legend:
[1] = Inhibition of HRP-tagged Vibrio cholerae cholera enterotoxin subunit B5 binding to GM1 coated plates using GM1os-beta-NAc-propargyl
[2] = Inhibition of cholera toxin in human intestinal organoids assessed as reduction in oganoids swelling using cholera toxin pre-incubated with compound for 4 hrs before organoid stimulation with cholera toxin by calcein AM staining based confocal microscopy; conditions: Vibrio cholerae, Intestine
[3] = molecular target: Cystic fibrosis transmembrane conductance regulator (Homo sapiens) (UniProt P13569); assay: Inhibition of CFTR in human intestinal organoids assessed as reduction in forskolin-induced oganoids swelling incubated for 4 hrs with cholera toxin followed by subsequent stimulation with 0.1 uM forskolin by calcein AM staining based confocal microscopy; conditions: Intestine
Cystic fibrosis transmembrane conductance regulator (Homo sapiens), sequence (P13569 whole entry, looked up): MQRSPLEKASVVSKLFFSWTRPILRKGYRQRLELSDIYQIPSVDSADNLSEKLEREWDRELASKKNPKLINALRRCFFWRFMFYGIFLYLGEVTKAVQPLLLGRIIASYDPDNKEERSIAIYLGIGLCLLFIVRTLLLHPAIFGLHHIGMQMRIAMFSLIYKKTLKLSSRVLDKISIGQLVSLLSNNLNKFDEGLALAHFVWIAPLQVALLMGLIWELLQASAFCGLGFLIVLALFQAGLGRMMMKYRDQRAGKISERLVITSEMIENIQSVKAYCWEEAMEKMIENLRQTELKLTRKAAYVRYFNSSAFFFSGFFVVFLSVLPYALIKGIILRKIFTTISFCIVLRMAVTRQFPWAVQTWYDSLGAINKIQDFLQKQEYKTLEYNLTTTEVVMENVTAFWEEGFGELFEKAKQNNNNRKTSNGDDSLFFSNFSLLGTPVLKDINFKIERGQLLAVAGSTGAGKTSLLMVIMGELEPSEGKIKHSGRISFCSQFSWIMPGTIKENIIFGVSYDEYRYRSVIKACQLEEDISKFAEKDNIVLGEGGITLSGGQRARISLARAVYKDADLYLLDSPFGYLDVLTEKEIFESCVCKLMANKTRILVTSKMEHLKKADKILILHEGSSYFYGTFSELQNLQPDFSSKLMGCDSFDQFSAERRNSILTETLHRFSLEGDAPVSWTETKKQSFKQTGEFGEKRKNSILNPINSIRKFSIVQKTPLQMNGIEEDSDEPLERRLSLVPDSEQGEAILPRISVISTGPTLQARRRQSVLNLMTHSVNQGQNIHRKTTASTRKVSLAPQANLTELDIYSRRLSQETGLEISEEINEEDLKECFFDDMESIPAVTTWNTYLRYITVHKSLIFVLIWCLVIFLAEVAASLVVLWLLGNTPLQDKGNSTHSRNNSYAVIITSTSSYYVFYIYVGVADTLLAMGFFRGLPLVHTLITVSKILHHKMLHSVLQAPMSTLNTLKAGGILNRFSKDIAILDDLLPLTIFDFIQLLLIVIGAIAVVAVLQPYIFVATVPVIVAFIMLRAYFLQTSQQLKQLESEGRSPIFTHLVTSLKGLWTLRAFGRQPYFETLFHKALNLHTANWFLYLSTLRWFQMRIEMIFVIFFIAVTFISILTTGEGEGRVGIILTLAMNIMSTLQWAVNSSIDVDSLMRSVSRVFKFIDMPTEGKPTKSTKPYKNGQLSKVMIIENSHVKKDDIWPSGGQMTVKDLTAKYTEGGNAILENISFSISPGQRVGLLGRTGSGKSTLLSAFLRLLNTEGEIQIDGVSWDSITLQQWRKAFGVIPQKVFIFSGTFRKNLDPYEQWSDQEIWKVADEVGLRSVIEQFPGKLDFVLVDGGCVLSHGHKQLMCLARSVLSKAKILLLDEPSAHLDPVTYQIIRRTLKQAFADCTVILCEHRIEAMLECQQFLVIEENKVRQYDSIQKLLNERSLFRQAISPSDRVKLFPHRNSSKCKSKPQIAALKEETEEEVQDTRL

CC(=O)N[C@H]1[C@H](O[C@@H]2[C@H](O[C@]3(C(=O)O)C[C@H](O)[C@@H](NC(C)=O)[C@H]([C@H](O)[C@H](O)CO)O3)[C@@H](O)[C@H](O[C@H]3[C@H](O)[C@@H](O)[C@H](N(Cc4cn([C@@H]5[C@@H](OC(C)=O)O[C@@H](n6cc(CN(C(C)=O)[C@@H]7O[C@H](CO)[C@@H](O[C@@H]8O[C@H](CO)[C@H](O[C@@H]9O[C@H](CO)[C@H](O)[C@H](O[C@@H]%10O[C@H](CO)[C@H](O)[C@H](O)[C@H]%10O)[C@H]9NC(C)=O)[C@H](O[C@]9(C(=O)O)C[C@H](O)[C@@H](NC(C)=O)[C@H]([C@H](O)[C@H](O)CO)O9)[C@H]8O)[C@H](O)[C@H]7O)nn6)[C@H](OC(C)=O)[C@H]5OC(C)=O)nn4)C(C)=O)O[C@@H]3CO)O[C@@H]2CO)O[C@H](CO)[C@H](O)[C@@H]1O[C@@H]1O[C@H](CO)[C@H](O)[C@H](O)[C@H]1O
IC50 [1]: 0.008 µM
IC50 [2]: 0.018 µM
inhibition [3]: inactive

CC(=O)N[C@H]1[C@H](O[C@@H]2[C@H](O[C@]3(C(=O)O)C[C@H](O)[C@@H](NC(C)=O)[C@H]([C@H](O)[C@H](O)CO)O3)[C@@H](O)[C@H](O[C@H]3[C@H](O)[C@@H](O)[C@H](N(Cc4cn(CCOCCOCCOCCO)nn4)C(C)=O)O[C@@H]3CO)O[C@@H]2CO)O[C@H](CO)[C@H](O)[C@@H]1O[C@@H]1O[C@H](CO)[C@H](O)[C@H](O)[C@H]1O
IC50 [1]: 0.11 µM
IC50 [2]: 0.424 µM
inhibition [3]: inactive

O=C[C@H](O)[C@@H](O)[C@@H](O)[C@H](O)CO [GALACTOSE]
IC50 [2]: 9100 µM
inhibition [3]: inactive
